Source: article PMC6445170, “VEGFR-2 inhibitors and apoptosis inducers: synthesis and molecular design of new benzo[g]quinazolin bearing benzenesulfonamide moiety” (Journal of Enzyme Inhibition and Medicinal Chemistry, 2017)

Target: T1, VEGFR-2 (Homo sapiens, UniProt P35968)
T1 construct: gene KDR; not described; endogenous activity said to be determined in MCF-7 cells, but compounds were incubated with 'enzyme' (AlphaScreen)
Assay: AlphaScreen kinase assay, phosphotyrosine antibody
Assay type: cell-based
Details: 5 min preincubation, room temperature; VEGFR-2 activity determined in MCF-7 cells
Excerpt: AlphaScreen kinase assay, phosphotyrosine antibody on VEGFR-2

T1 sequence (P35968 20-1356): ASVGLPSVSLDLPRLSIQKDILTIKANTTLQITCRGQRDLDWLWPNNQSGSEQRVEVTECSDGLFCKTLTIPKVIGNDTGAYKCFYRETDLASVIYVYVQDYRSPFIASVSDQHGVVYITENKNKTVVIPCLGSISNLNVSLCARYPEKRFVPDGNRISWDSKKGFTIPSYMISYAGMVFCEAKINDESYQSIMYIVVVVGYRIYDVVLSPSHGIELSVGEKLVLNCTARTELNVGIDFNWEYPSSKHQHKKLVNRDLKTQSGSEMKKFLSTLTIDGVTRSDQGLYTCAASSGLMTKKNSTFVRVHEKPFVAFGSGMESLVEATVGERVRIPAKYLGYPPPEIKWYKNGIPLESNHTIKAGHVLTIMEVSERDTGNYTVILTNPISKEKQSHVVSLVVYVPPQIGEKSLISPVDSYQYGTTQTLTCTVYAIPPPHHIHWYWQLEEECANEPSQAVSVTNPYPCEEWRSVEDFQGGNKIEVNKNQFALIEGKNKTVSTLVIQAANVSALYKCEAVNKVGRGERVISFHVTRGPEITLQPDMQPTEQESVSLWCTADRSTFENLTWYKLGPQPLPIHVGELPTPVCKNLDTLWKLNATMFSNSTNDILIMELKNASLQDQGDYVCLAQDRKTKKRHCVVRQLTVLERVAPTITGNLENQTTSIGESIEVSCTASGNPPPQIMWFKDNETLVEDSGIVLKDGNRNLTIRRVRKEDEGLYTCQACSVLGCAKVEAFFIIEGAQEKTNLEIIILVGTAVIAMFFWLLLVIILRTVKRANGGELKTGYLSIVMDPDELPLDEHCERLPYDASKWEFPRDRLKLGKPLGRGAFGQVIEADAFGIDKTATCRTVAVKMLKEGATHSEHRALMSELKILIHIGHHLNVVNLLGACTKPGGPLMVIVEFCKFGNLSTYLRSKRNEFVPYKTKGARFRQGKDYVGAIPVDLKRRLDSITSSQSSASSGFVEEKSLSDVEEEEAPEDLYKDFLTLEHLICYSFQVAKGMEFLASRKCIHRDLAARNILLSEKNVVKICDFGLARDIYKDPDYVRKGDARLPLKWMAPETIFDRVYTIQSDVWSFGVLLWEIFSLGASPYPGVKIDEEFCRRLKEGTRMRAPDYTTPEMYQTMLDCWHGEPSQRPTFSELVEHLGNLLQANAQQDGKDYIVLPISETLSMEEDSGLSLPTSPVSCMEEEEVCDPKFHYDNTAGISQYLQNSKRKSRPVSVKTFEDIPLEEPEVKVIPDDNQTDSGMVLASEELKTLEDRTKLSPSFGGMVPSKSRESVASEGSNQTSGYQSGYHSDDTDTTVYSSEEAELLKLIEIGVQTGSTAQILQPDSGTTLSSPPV

% Inhibition of VEGFR-2 enzyme [%] | Structure (SMILES)
64.89 | NS(=O)(=O)c1ccc(-n2c(SCC(=O)NN=Cc3ccc(Br)cc3)nc3cc4ccccc4cc3c2=O)cc1 [compound 10, 4-(2-(2-(2-(4-Bromobenzylidene)hydrazinyl)-2-oxoethylthio)-4-oxobenzo[g]quinazolin-3(4H)-yl)benzenesulfonamide]
71.29 | NS(=O)(=O)c1ccc(-n2c(SCC(=O)NN=Cc3ccc4c(c3)OCO4)nc3cc4ccccc4cc3c2=O)cc1 [compound 11, 4-(2-(2-(2-(Benzo[d][1,3]dioxol-5-ylmethylene)hydrazinyl)-2-oxoethylthio)-4-oxobenzo[g]quinazolin-3(4H)-yl)benzenesulfonamide]

The next lines start with the compound.

Structure (SMILES) | % Inhibition of VEGFR-2 enzyme [%]
NNC(=O)CSc1nc2cc3ccccc3cc2c(=O)n1-c1ccc(S(N)(=O)=O)cc1 [compound 5, 4-(2-(2-Hydrazinyl-2-oxoethylthio)-4-oxobenzo[g]quinazolin-3(4H)-yl)benzenesulfonamide] | 68.44
Cc1ccc(C)c(C=NNC(=O)CSc2nc3cc4ccccc4cc3c(=O)n2-c2ccc(S(N)(=O)=O)cc2)c1 [compound 6, 4-(2-(2-(2-(2,5-Dimethylbenzylidene)hydrazinyl)-2-oxoethylthio)-4-oxobenzo[g]quinazolin-3(4H)-yl)benzenesulfonamide] | 69.95

Same assay, conditions: 5 min preincubation, room temperature; VEGFR-2 activity determined in MCF-7 cells; inhibitor concentration not stated

% Inhibition of VEGFR-2 enzyme [%] | Structure (SMILES)
72.19 | Cc1ccc(C=NNC(=O)CSc2nc3cc4ccccc4cc3c(=O)n2-c2ccc(S(N)(=O)=O)cc2)cc1F [compound 7, 4-(2-(2-(2-(3-Fluoro-4-methylbenzylidene)hydrazinyl)-2-oxoethylthio)-4-oxobenzo[g]quinazolin-3(4H)-yl)benzenesulfonamide]

Same assay, conditions: 5 min preincubation, room temperature; VEGFR-2 activity determined in MCF-7 cells; read-out: IC50 on VEGFR-2 enzyme (μm)

IC50 [nM] | Structure (SMILES)
640 | NS(=O)(=O)c1ccc(-n2c(SCC(=O)NN=Cc3ccc(Cl)cc3Cl)nc3cc4ccccc4cc3c2=O)cc1 [compound 9, 4-(2-(2-(2-(2,4-Dichlorobenzylidene)hydrazinyl)-2-oxoethylthio)-4-oxobenzo[g]-quinazolin-3(4H)-yl)benzenesulfonamide]
860 | NS(=O)(=O)c1ccc(-n2c(SCC(=O)N3NC(=O)CC3=O)nc3cc4ccccc4cc3c2=O)cc1 [compound 20, 4-(2-(2-(3,5-Dioxopyrazolidin-1-yl)-2-oxoethylthio)-4-oxobenzo[g]quinazolin-3(4H)-yl) benzenesulfonamide]
830 | CCOC(=O)c1cnn(C(=O)CSc2nc3cc4ccccc4cc3c(=O)n2-c2ccc(S(N)(=O)=O)cc2)c1N [compound 22, Ethyl 5-amino-1-(2-(4-oxo-3-(4-sulfamoylphenyl)-3,4-dihydrobenzo[g]quinazolin-2-ylthio)acetyl)-1H-pyrazole-4-carboxylate]
1040 | Cc1nn(C(=O)CSc2nc3cc4ccccc4cc3c(=O)n2-c2ccc(S(N)(=O)=O)cc2)c(N)c1C#N [compound 23, 4-(2-(2-(5-Amino-4-cyano-3-methyl-1H-pyrazol-1-yl)-2-oxoethylthio)-4-oxobenzo[g]quinazo-lin-3(4H)-yl) benzenesulfonamide]
